# “Also recorded” adds a separate entry of the source. Like-named read-outs stand apart in the source and are kept apart here.
# How the values were obtained:
# HuCol2gLuc aggregates [1] = assay: Metabolic assay (resazurin) on HuCol2gLuc aggregates; type: cell-based, human; settings: day 22
# Experimental: Metabolic Assay (Resazurin). Metabolic activity was assessed on day 22 by adding resazurin to a final concentration of 50 μM to each well and incubating at physioxia for 3 hours. After three hours, media (120 μl) was transferred to a 96-well black plate (Greinerbio) and fluorescence read at an excitation of 535 nm and emission at 588 nm. At OT-2 (Opentrons) python-coded robotic pipette was used to add resazurin to cell plates as well as to transfer medium to black plates.
# HuCol2gLuc aggregates [2] = assay: Biochemical assays (DNA, GAG, total collagen) on HuCol2gLuc aggregates; type: cell-based, human
# Experimental: Biochemical Assays. Aggregates frozen at day 22, were thawed with PBS, and digested with Papain (25 μg/ml, Sigma, P4762, in 2 mM cysteine; 50 mM sodium phosphate; 2 mM EDTA at a pH 6.5, 100 μl) at 65° C. overnight. Plates were sealed with a qPCR adhesive sealing film (USA Scientific), a silicone sheet, and steel plates clamped to the plate to prevent evaporation during digestion. Half of the digest (50 μl) was transferred to another plate and frozen for hydroxyproline assessment. In the remaining digest, papain was inactivated with 0.1M sodium hydroxide (NaOH, 50 μl) followed by NaOH neutralization (100 mM Na2HPO4, 0.1 N HCL, pH 1.82, 50 μl). To quantitate DNA content, samples of the neutralized digest (20 μl) were combined with buffered Hoechst dye (#33258, 667 ng/ml, phosphate buffer pH 8, 100 μl) and fluorescence measured at an excitation of 365 nm and emission of 460 nm. For GAG assessment, 1,9-Dimethyl-methylene blue solution (195 μl) was added to neutralized digests (5 μl) and absorbance measured at 595 nm and 525 nm. Readings were corrected by subtracting 595 nm reading from 525 nm. Micrograms of DNA and GAG were calculated using a Calf thymus DNA standard (Sigma) or Chondroitin Sulfate standard (Seikagaku Corp.), respectively.
# For hydroxyproline (HP) quantification, the frozen digests (50 μl) were thawed at room temperature and incubated overnight at 105° C. with 6M hydrochloric acid (200 μl). Plates were sealed to prevent evaporation. Samples were then dried at 70° C. overnight with a hydroxyproline standard (Sigma). Copper sulfate (0.15 M, 10 μl) and NaOH (2.5 M, 10 μl) were added to each well and incubated at 50° C. for 5 minutes, followed by hydrogen peroxide (6%, 10 μl) for 10 minutes. Sulfuric acid (1.5 M, 40 μl) and Ehrlich's reagent (20 μl) were added and samples incubated at 70° C. for 15 minutes. Absorbance was measured at 505 nm. Micrograms of hydroxyproline were calculated using the standard. Total collagen was calculated by the following formula (μg of HP×7.6=μg Total Collagen).
# [3] = tested on: kinase phosphorylation in primary human chondrocytes; assay: Phospho-kinase array on primary human chondrocyte lysate; type: cell-based; settings: donor 2, 24 h, vs DMSO
# Experimental: Phospho-kinase Array. Primary human chondrocytes were seeded at 5×10^6 cells (2×10 cm adherent dish, Corning) in growth media and allowed to adhere overnight. Growth media was replaced with chondrogenic media supplemented with 1 ng/mL TGFβ1 with DMSO or with drug […]. Cells were treated for 24 h before processing according to the manufacturer's protocol (ARY003C, R&D Systems). This phospho-kinase array contains capture antibodies to measure relative levels of phosphorylation of 37 kinases on a nitrocellulose membrane. Signal intensity was quantified using ImageJ.
# butyrylcholinesterase = butyrylcholinesterase (Homo sapiens, UniProt P06276); settings: cited from earlier work
# KB cell line = settings: cited from earlier work
# [4] = tested on: type II collagen promoter (COL2A1-Gaussia luciferase) in primary human chondrocytes; assay: HuCol2gLuc 3D aggregate type II collagen promoter-driven Gaussia luciferase assay; type: cell-based; settings: for stimulation of type II collagen production in the screen of natural products: NCI Natural Products Set V, 5 μM continuously, 22-day assay; for cumulative luminescence: validation
# Experimental: Chondrogenic Culture. Human COL2A1-GLuc or uninfected cells were thawed and seeded in growth media on synoviocyte matrix at 6,000 cells/cm^2 and expanded to 90-100% confluence in physioxia. Cells were trypsinized (0.25% Trypsin/EDTA; Corning), resuspended in growth media (for monolayer culture) or chondrogenic differentiation media for 3D aggregates (93.24% High-Glucose DMEM (Gibco), 1% dexamethasone 10^−5M (Sigma), 1% ITS+premix (Becton-Dickinson), 1% Glutamax (Hyclone), 1% 100 mM Sodium Pyruvate (Hyclone), 1% MEM Non-Essential Amino Acids (Hyclone), 0.26% L-Ascorbic Acid Phosphate 50 mM (Wako), 0.5% Fungizone (Life Technologies) with TGF-β1 (Peprotech) and seeded as described below.
# Generation and Maintenance of 3D aggregates. To generate 3D aggregates, cells were seeded at 50,000 cells per well (in 96-well cell repellent u-bottom plates, GreinerBio) and then centrifuged at 500 RCF, 5 min. For the initial drug screen, aggregates were cultured in basal chondrogenic media (1 ng/ml TGF-β1) alone, with DMSO (vehicle control) or 5 μM of the drug compounds from the NCI library (Natural Products V, NCI). For candidate validation and subsequent studies aggregates were cultured in basal chondrogenic media (10 ng/ml TGF-β1) alone, with DMSO (vehicle control) or compounds as indicated in the results. Aggregates were cultured for three weeks in physioxic conditions, culture medium was sampled and replaced three times a week with fresh medium. An OT-2 (Opentrons) python coded robotic pipette, programmed at an aspiration height of 2 mm from the bottom of the wells and aspiration rate of 40 μl/s was utilized for addition of compound, cell feeding, and media sampling for luciferase assay. After three weeks, cell aggregates were either fixed in neutral buffered formalin for histology or medium removed and aggregates frozen dry (−20° C.) for biochemical assays.
# Luciferase Assay. Conditioned culture medium sampled from aggregates in 96-wells (20 μL/well) was assessed using a stabilized Gaussia Luciferase buffer mix (50 µl/well) for a final concentration of 0.09 M MES, 0.15M Ascorbic Acid, and 4.2 μM Coelenterazine in white 96-well plates. Luminescence was measured in a plate reader (25° C., relative light units (RLU), En Vision plate reader). An OT-2 (Opentrons) python coded robotic pipette was utilized for luciferase buffer addition to white plates (GreinerBio).
# Plasmodium falciparum = settings: cited from earlier work
# butyrylcholinesterase, sequence (P06276 29-602): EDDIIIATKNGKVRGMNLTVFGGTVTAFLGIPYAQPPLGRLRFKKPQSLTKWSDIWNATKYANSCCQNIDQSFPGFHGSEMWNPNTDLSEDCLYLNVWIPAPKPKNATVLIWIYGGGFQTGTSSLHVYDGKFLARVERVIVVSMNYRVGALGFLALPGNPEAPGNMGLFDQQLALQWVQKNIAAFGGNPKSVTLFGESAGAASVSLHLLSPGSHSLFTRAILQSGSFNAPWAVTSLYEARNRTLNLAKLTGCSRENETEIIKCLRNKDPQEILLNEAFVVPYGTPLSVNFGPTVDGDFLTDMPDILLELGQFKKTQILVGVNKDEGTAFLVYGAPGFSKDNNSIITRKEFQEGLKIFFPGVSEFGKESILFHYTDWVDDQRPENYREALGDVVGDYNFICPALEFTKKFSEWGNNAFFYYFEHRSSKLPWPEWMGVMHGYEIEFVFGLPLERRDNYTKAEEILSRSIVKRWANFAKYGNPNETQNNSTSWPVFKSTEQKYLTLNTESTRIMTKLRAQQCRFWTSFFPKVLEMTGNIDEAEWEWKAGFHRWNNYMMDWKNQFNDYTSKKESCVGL
substance,measurement,setting,value
Promoline [Drug 84],cytotoxicity,HuCol2gLuc aggregates [1]; 10 μM,cytotoxicity
same,resazurin fluorescence (metabolic activity),HuCol2gLuc aggregates [1]; 0-10 μM,dose dependent decrease
same,glycosaminoglycan (GAG) content,"HuCol2gLuc aggregates [2]; day 22, donor 1",not statistically significant
same,total collagen,"HuCol2gLuc aggregates [2]; day 22, donor 1",no observable effect
same,DNA content,"HuCol2gLuc aggregates [2]; day 22, donor 2, vs untreated",no change in DNA content
same,glycosaminoglycan (GAG) content,"HuCol2gLuc aggregates [2]; day 22, donor 2, untreated 15 μg",decrease in GAG content
same,total collagen,"HuCol2gLuc aggregates [2]; day 22, donor 2, untreated ~14 μg",~21 µg
same,DNA content,"HuCol2gLuc aggregates [2]; day 22, 10 μM",significant decrease
same,AKT 1/2/3 phosphorylation at T308 and S473,[3],substantial decrease
same,"p53 S15, STAT3 Y705 phosphorylation and HSP 60",[3],less considerable decrease
same,"phosphorylation of CREB, EGFR, and eNOS",[3],modest increase
same,inhibition of butyrylcholinesterase,butyrylcholinesterase,potent inhibitor
same,cytotoxicity in the KB cell line,KB cell line,low cytotoxicity
same,stimulation of type II collagen production in the screen of natural products,[4]; listed as 84,stimulatory effects; also recorded: stimulatory throughout the experiment
same,stimulation of type II collagen production in the screen of natural products,[4]; listed as Promoline,stimulate type II collagen
same,EC50,[4]; cumulative luminescence over 22 days,3.07 µM
same,EC50,"[4]; day 3, 0-10 μM, read-out: EC50 type II collagen driven-luminescence",2.46 µM
same,EC50,"[4]; day 10, 0-10 μM, read-out: EC50 type II collagen driven-luminescence",2.58 µM
same,stimulation of type II collagen production during the early stages,"[4]; natural product screen, day 8 volcano plot",stimulate type II collagen production during the early stages
same,day 22 luminescence normalized to DMSO vehicle control,"[4]; screen, 5 μM, 1 ng/ml TGF-β1",significant increase in luminescence
same,trend of luminescence over 22 days normalized to DMSO,"[4]; screen, 5 μM, 1 ng/ml TGF-β1",increase over the control as early as day 3 with a sustained increase in expression over 22 days
same,cumulative luminescence,[4]; donor 1,no significant effect
same,cumulative luminescence,[4]; donor 2,significant increase
same,anti-microbial activity against Plasmodium falciparum,Plasmodium falciparum,weak anti-microbial activity
